Experimental data as given in patent US20260124167A1, “SIRTUIN ACTIVATOR OR EXPRESSION ENHANCER, NAD+ INCREASING AGENT, AND SENESCENT CELL INHIBITOR” (WAKUNAGA PHARMACEUTICAL CO., LTD., priority 2022, published 2026).

Key:
[1] = test system: NAD^+; assay: NAD+ amount increasing action in kidney, skeletal muscle, and liver (in vivo); settings: SAMP8 mice, single oral dose, 60 minutes later; FIG. 10
Method: (§1) (a) About 5 mg of S-1-propenylcysteine (cis/trans mixture) produced in Preparation Example 2 was weighed precisely, and dissolved in 10 mL of purified water to prepare an administration liquid. (b) About 6 mg of S-1-propenylcysteine (cis/trans mixture) produced in Preparation Example 2 was weighed precisely and dissolved in 1 mL of culture liquid. The liquid was used as a stock solution, diluted appropriately, and subjected to an in vitro test.
(§2) Animals for evaluating the biological activity were bred as follows. Senescence-accelerated mice SAMP8 (male) for testing were purchased from Japan SLC, Inc. After purchase, the animals were acclimatized for one week and used as animals for the evaluation tests.
A single dose of the sample prepared in the above (1) (a) was orally administrated to animals for the evaluation tests in the above (2), and then cerebral cortexes, livers, kidneys, and skeletal muscles of such animals were extracted 60 minutes later. The NAD^+ amounts in the cerebral cortexes, livers, kidneys, and skeletal muscles were measured using NAD^+/NADH Assay Kit manufactured by Dojindo Laboratories. S-1-propenylcysteine increased the NAD^+ amount.

[2] = test system: lipocalin-2 (NGAL); assay: Inhibitory action on kidney injuries (in vivo), NGAL Western Blotting; settings: SAMP8 mice, repeated oral administration for two weeks, FIG. 8
Method: as §1, §2
(§3) After repeated oral administration of the sample prepared in the above (1) (a) to the animals for the evaluation tests in the above (2) for two weeks, kidneys of such animals were excised. After the kidneys were crushed using an automatic tissue crusher, the cells were lysed with an RIPA cell lysis buffer manufactured by Millipore Corporation which was diluted 10-fold with purified water added with a protease inhibitor and a phosphatase inhibitor manufactured by Roche and then centrifuged (10,000 rpm, 10 min, 4° C.), and the supernatant was used as a cell extract. The cell extract was used for analysis by Western Blotting according to a conventional method. […]

[3] = test system: Senescence-accelerated mice SAMP8; assay: Cognitive/memory retention action (in vivo), passive avoidance test; settings: mixed with food for four months, holding trial after two months, FIG. 9
Method: as §1, §2
The sample prepared in the above (1) (a) was mixed with food and fed to animals for evaluation test in the above (2) for four months, and then a passive avoidance test was performed. The passive avoidance test is a test utilizing a habit that a mouse prefers a dark place, and on Day 1, a mouse already in a bright room was moved to a dark room while receiving an electrical shock (50 V/1 second), and the time it took for the mouse to enter the dark room was taken as response latency of an acquisition trial. After two months, the mouse was put in the bright room again and the time it took to move to the dark room (the response latency of a holding trial) was used as an index of memory.

[4] = test system: SIRT1 protein; assay: SIRT1 protein amount-increasing effect in liver and heart (in vivo); set-up: species or system mice; settings: animals prepared as in (12) (SAMR1, SAMP8), repeated oral administration for two weeks; FIG. 13
[5] = test system: SIRT1 protein; assay: SIRT1 protein increasing action in hypothalamus (in vivo); settings: SAMP8 mice fed diet mixed with sample (0.001% liquid) for 10 months; FIG. 12
Method: S-1-propenylcysteine (cis/trans mixture) produced in Preparation Example 2 was dissolved at a concentration of 0.001% in purified water to prepare an administration liquid. Animals for evaluating the biological activity were bred as follows. Senescence-accelerated mice SAMR1 (male) and SAMP8 (male) for testing were purchased from Japan SLC, Inc. After purchase, the animals were acclimatized for one week and used as animals for the evaluation tests. These animals for the evaluation tests were fed with regular diet and SAMP8 were fed with the diet mixed with the sample prepared above for 10 months, and then hypothalamuses of such animals were excised. After the hypothalamuses were crushed using an automatic tissue crusher, the cells were lysed with a RIPA cell lysis buffer manufactured by Millipore Corporation which was diluted 10-fold with purified water added with combined protease/phosphatase inhibitors manufactured by Thermo Fisher Scientific K.K., and then centrifuged (10,000 rpm, 10 min, 4° C.), and the supernatant was used as a cell extract. The cell extract was used for analysis by Western Blotting according to a conventional method. An anti-SIRT1 antibody (manufactured by Biolegend) and an anti-β-actin antibody (manufactured by Fujifilm Wako Pure Chemical Corporation) were used as antibodies. S-1-propenylcysteine increased the SIRT1 protein mass.

[6] = test system: NAD^+; assay: NAD+ amount increasing action (in vivo), NAD+/NADH Assay Kit; settings: SAMP8 mice, single oral dose (180 minutes later) and mixed with food for one month; FIG. 4
Method: as §1, §2
A single dose of the sample prepared in (1) (a) was orally administered to animals for the evaluation tests in the above (2), and then cerebral cortices of such animals were excised 180 minutes later. In addition, the sample prepared in the above (1) (a) was mixed with food and fed to animals for the evaluation tests in the above (2) for one month, and then cerebral cortices of such animals were excised. The NAD^+ amount in the cerebral cortices was measured using NAD^+/NADH Assay Kit manufactured by Dojindo Laboratories. S-1-propenylcysteine increased NAD^+ amount.

[7] = test system: SIRT1 protein; assay: SIRT1 protein increasing action (in vivo), hippocampus, Western Blotting; settings: SAMP8 mice, repeated oral administration for two weeks; FIG. 3
Method: as §1, §2
as §3, with “to” for “to the”, “weeks, hippocampi” for “weeks, kidneys”, “the hippocampi” for “the kidneys”, “with a” for “with an”, “with combined protease/phosphatase inhibitors” for “with a protease inhibitor and a phosphatase inhibitor”, “by Thermo Fisher Scientific K.K.,” for “by Roche”

[8] = test system: p53 protein; assay: Suppression of cellular senescence marker p53 protein in the hippocampus (in vivo); settings: SAMP8 mice, repeated oral administration for six weeks; FIG. 5
Method: as §1, §2
as §3, with “to” for “to the”, “for six” for “for two”, “weeks, hippocampi” for “weeks, kidneys”, “the hippocampi” for “the kidneys”, “with a” for “with an”, “by Roche,” for “by Roche”

[9] = test system: SIRT1 gene; assay: Enhancement of SIRT1 gene expression in kidney (in vivo), real-time PCR; settings: SAMP8 mice, repeated oral administration for two weeks, FIG. 6
Method: as §1, §2
(§4) After repeated oral administration of the sample prepared in the above (1) (a) to the animals for the evaluation tests in the above (2) for two weeks, kidneys of such animals were excised. The kidneys were crushed using an automatic tissue crusher, and then RNA was extracted using a TRIzol solution manufactured by Thermo Fisher Scientific K.K. CDNA was synthesized using PRIMEScript RT reagent Kit with gEraser manufactured by Takara. The synthesized CDNA was subjected to real-time PCR using KAPA SYBR Fast qPCR kit manufactured by Nippon Genetics Co., Ltd. The results are shown in FIG. 6. S-1-propenylcysteine increased the SIRT1 expression in the mouse kidney.

[10] = target: T1, SIRT1 (Mus musculus, UniProt Q923E4); assay: SIRT1 activation action (in vivo), cerebral cortex lysate, SIRT1_GLO kit; settings: SAMP8 mice, single oral dose, 180 minutes after administration; FIG. 2
T1 construct: from tissue; host or cells: cerebral cortex of SAMP8 mice
T1 sequence (Q923E4 1-737): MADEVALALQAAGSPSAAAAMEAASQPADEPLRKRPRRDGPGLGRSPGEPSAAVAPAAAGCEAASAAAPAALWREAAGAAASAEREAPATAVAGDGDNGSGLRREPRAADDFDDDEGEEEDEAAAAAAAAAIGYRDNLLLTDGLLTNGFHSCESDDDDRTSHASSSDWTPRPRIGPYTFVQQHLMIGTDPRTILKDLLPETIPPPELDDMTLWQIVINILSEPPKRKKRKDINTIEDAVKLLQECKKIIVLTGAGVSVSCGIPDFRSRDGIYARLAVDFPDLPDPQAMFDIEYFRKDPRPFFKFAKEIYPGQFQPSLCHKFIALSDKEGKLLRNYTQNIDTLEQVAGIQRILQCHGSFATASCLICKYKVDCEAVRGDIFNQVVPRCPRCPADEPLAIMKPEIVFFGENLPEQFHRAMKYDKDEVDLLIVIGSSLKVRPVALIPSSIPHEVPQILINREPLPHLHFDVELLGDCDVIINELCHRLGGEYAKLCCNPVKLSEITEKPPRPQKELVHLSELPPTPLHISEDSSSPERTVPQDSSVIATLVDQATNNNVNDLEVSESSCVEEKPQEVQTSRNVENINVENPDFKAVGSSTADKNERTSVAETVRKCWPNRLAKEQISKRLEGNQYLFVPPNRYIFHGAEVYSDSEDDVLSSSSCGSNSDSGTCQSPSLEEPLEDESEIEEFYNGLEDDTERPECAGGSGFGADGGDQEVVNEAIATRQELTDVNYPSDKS
Method: as §1, §2
A SIRT1_GLO kit manufactured by Promega Corporation was purchased to measure the sirtuins activity. A lysate of the cerebral cortex was placed in a 96-well plate, various reaction reagents were added, and then luminous intensity of luciferase was measured by a plate reader.
A single dose of the sample prepared in the above (1) (a) was orally administrated to animals for the evaluation tests in the above (2), and then cerebral cortices of such animals were extracted 15, 30, 60, and 180 minutes later. […] Centrifugation was performed and the sirtuins activity in the supernatant thereof was measured. […]

[11] = test system: p16 gene; assay: Suppression of senescent cell marker p16 gene expression in the kidney (in vivo); settings: SAMP8 mice, repeated oral administration for two weeks, real-time PCR; FIG. 7
Method: as §1, §2
as §4, with “synthesized cDNA” for “synthesized CDNA”, “FIG. 7. […]” for “FIG. 6. S-1-propenylcysteine increased the SIRT1 expression in the mouse kidney.”

[12] = test system: KIM-1; assay: Inhibitory action on kidney injuries (in vivo), KIM-1 Western Blotting; settings: SAMP8 mice, repeated oral administration for two weeks, FIG. 8
Method: as §1, §2, §3

[13] = test system: p21 gene; assay: Suppression of senescent cell marker p21 gene expression in the kidney (in vivo); settings: SAMP8 mice, repeated oral administration for two weeks, real-time PCR; FIG. 7
Method: as §1, §2
as §4, with “synthesized cDNA” for “synthesized CDNA”, “FIG. 7. […]” for “FIG. 6. S-1-propenylcysteine increased the SIRT1 expression in the mouse kidney.”

[14] = test system: SIRT1 protein; assay: SIRT1 protein increasing action in cerebral cortex, hippocampus, heart, lung, liver, kidney, and skeletal muscle (in vivo); settings: SAMP8 mice, about 10 mg in 10 mL liquid, repeated oral administration for two weeks; FIG. 11
Method: as §2
About 10 mg of S-1-propenylcysteine (cis/trans mixture) produced in Preparation Example 2 was weighed precisely, and dissolved in 10 mL of purified water to prepare an administration liquid. After repeated oral administration of the prepared sample to animals for the evaluation tests in the above (2) for two weeks, cerebral cortexes, hippocampi, hearts, lungs, livers, kidneys, and skeletal muscles of such animals were excised. After the cerebral cortexes, hippocampi, hearts, lungs, livers, kidneys, and skeletal muscles were crushed using an automatic tissue crusher, the cells were lysed with a RIPA cell lysis buffer manufactured by Millipore Corporation which was diluted 10-fold with purified water added with combined protease/phosphatase inhibitors manufactured by Thermo Fisher Scientific K.K., and then centrifuged (10,000 rpm, 10 min, 4° C.), and the supernatant was used as a cell extract. The cell extract was used for analysis by Western Blotting according to a conventional method. […]

CC=CSC[C@H](N)C(=O)O [S-1-propenylcysteine]
NAD^+ amount in cerebral cortexes, livers, kidneys, and skeletal muscles [1]: increased
NGAL (marker of kidney injuries) in kidney [2]: reduced
cognitive and memory functions (response latency, passive avoidance test) [3]: ameliorated aging-related decline in cognitive and memory functions
SIRT1 protein mass in livers and hearts [4]: increased
SIRT1 protein mass in hypothalamus [5]: increased
NAD^+ amount in cerebral cortices [6]: increased
SIRT1 protein mass in hippocampus [7]: increased
p53 protein mass in hippocampus [8]: reduced
SIRT1 expression in kidney [9]: increased
sirtuin activity in cerebral cortex [10]: increased
cells expressing p16 gene in the kidneys [11]: reduced
KIM-1 (marker of kidney injuries) in kidney [12]: reduced
cells expressing p21 gene in the kidneys [13]: reduced
SIRT1 protein mass in cerebral cortexes, hippocampi, hearts, lungs, livers, kidneys, and skeletal muscles [14]: increased
